Results from publication PMC9606955, “In Vitro Activity of Essential Oils Distilled from Colombian Plants against Candida auris and Other Candida Species with Different Antifungal Susceptibility Profiles” (Molecules, 2022).
In brackets after ≈: the same amount, converted by molar mass. Each block holds one compound with its values, some of them ahead of it.

How the values were obtained:
[1] = system: C. tropicalis ATCC 200956; test: MIC, CLSI M27 broth microdilution; type: cell-based, Candida tropicalis; details: C. tropicalis ATCC 200956, EOs and terpenes
Description: (§1) The fungal strains used in this study were C. albicans ATCC 10231, C. albicans ATCC 64550, C. parapsilosis ATCC 22019, C. tropicalis ATCC 750, C. tropicalis ATCC 200956 (resistant to azoles and AMB), C. glabrata LMDM 34 (resistant to echinocandins), C. metapsilosis MUM 15.12, C. orthopsilosis MUM 17.13, C. lusitaniae MUM 17.08, C. krusei ATCC 6258 (Issatchenkia orientalis ATCC 6258), and C. auris CDC B11903. Additionally, nine clinical isolates were included: C. parapsilosis Synlab 406 (FLC-resistant) and eight C. auris isolates identified by MALDI-TOF MS (Bruker Daltonics, Bremen, Germany) according to Zhao et al.. These yeasts were cultured on Sabouraud Dextrose Agar (SDA; Sigma-Aldrich, St. Louis, MO, USA) for 24 h at 35 °C.
(§2) Antifungal susceptibility testing was performed according to Clinical and Laboratory Standards Institute M27, 4th Edition (CLSI standard M27, 4th Edition). Some modifications were applied for evaluation of the antifungal activity of EOs and terpenes. Initially, a screening was carried out to determine the antifungal activity of the EOs and of commercial terpenes. Stock concentrations of EOs and terpenes were prepared at 512 µg/mL and an inoculum of 2.5 × 10^3 CFU/mL of each yeast was prepared in RPMI 1640-MOPS (Sigma- Aldrich St. Louis, MO, USA). Thereafter, 100 µL of each stock solution of EOs or terpenes was dispensed in 96-well microdilution plates (Corning®, Costar®, NY, USA) and 100 µL of each yeast inoculum was added. […] Microdilution plates were incubated at 35 °C and, after 24 h, the presence or absence of growth was visually checked using a manual mirror viewer and then compared with the amount of growth in the control (no EO or terpene). Compounds able to inhibit yeast growth were tested to determine the minimal inhibitory concentration (MIC) as follows: 100 µL of 10 two-fold dilutions of the EOs or commercial terpenes was dispensed in 96-well microplates and the yeast inoculum was added. Final concentrations of the EOs or terpenes ranged from 0.5 µg/mL to 256 µg/mL. Microdilution plates were incubated at 35 °C for 24 h. MICs were visually determined at the lowest concentration that produced visual inhibition compared to the growth control. The assays were performed at least three times in duplicate on different days. The results were expressed as geometric means (GM) and ranges. As an antifungal susceptibility testing control, the activity of ITC and AMB against the reference strains C. krusei ATCC 6258 and C. parapsilosis ATCC 22019 was evaluated in all experiments following the CLSI standard M27, 4th Edition. It was mandatory that the MIC values remained in the accepted range.

[2] = system: C. metapsilosis MUM 15.12; test: MIC, CLSI M27 broth microdilution; type: cell-based, Candida metapsilosis; details: C. metapsilosis MUM 17.13 (Table 3), EOs and terpenes, 24 h, top concentration 256 µg/mL
Description: as §1, §2

[3] = system: C. orthopsilosis MUM 17.13; test: MIC, CLSI M27 broth microdilution; type: cell-based, Candida orthopsilosis; details: C. orthopsilosis MUM 15.12 (Table 3), EOs and terpenes, 24 h, top concentration 256 µg/mL
Description: as §1, §2

[4] = system: C. lusitaniae MUM 17.08; test: MIC, CLSI M27 broth microdilution; type: cell-based, Candida lusitaniae; details: C. lusitaniae MUM 17.08, EOs and terpenes
Description: as §1, §2

[5] = system: C. auris CDC B11903; test: MIC, CLSI M27 broth microdilution; type: cell-based, Candida auris; details: C. auris CDC B11903, EOs and terpenes, 24 h, top concentration 256 µg/mL
Description: as §1, §2

[6] = system: C. auris Ca 13; test: MIC, CLSI M27 broth microdilution; type: cell-based, Candida auris; details: C. auris Ca 13, EOs and terpenes
Description: as §1, §2

[7] = system: C. auris Ca 17; test: MIC, CLSI M27 broth microdilution; type: cell-based, Candida auris; details: C. auris Ca 17, EOs and terpenes, 24 h, top concentration 256 µg/mL
Description: as §1, §2

[8] = system: C. auris Ca 1; test: MIC, CLSI M27 broth microdilution; type: cell-based, Candida auris; details: C. auris Ca 1, EOs and terpenes, 24 h, top concentration 256 µg/mL
Description: as §1, §2

[9] = system: C. auris Ca 32; test: MIC, CLSI M27 broth microdilution; type: cell-based, Candida auris; details: C. auris Ca 32, EOs and terpenes
Description: as §1, §2

[10] = system: C. auris Ca 41; test: MIC, CLSI M27 broth microdilution; type: cell-based, Candida auris; details: C. auris Ca 41, EOs and terpenes, 24 h, top concentration 256 µg/mL
Description: as §1, §2

[11] = system: C. auris Ca 45; test: MIC, CLSI M27 broth microdilution; type: cell-based, Candida auris; details: C. auris Ca 45, EOs and terpenes, 24 h, top concentration 256 µg/mL
Description: as §1, §2

[12] = system: C. auris Ca 46; test: MIC, CLSI M27 broth microdilution; type: cell-based, Candida auris; details: C. auris Ca 46, EOs and terpenes, 24 h, top concentration 256 µg/mL
Description: as §1, §2

[13] = system: C. auris Ca 9; test: MIC, CLSI M27 broth microdilution; type: cell-based, Candida auris; details: C. auris Ca 9, EOs and terpenes
Description: as §1, §2

[14] = system: C. parapsilosis Synlab 406; test: MIC, CLSI M27 broth microdilution; type: cell-based, Candida parapsilosis; details: C. parapsilosis Synlab 406, EOs and terpenes
Description: as §1, §2

[15] = in vitro; details: human
Description: (§4) Cells were cultured in Dulbecco’s Modified Eagle Medium (DMEM; Sigma-Aldrich, St. Louis, MO, USA) supplemented with 10% fetal bovine serum (Invitrogen, Carlsbad, CA, USA), 1% penicillin, streptomycin, and neomycin (Invitrogen, Carlsbad, CA, USA), and 1% L-glutamine (Invitrogen, Carlsbad, CA, USA) at 37 °C in a humidified atmosphere of 5% CO2. […] Afterwards, the culture medium was removed and 3-(4.5-dimethylthiazol-2-yl)-2.5-diphenyltetrazolium bromide (MTT) (Sigma-Aldrich, St. Louis, MO, USA) at 5 mg/mL was added at 37 °C for 2 h. Subsequently, DMSO was added to dissolve the formazan crystals. Finally, the absorbances were measured with a Multiskan SkyHigh Microplate Spectrophotometer (Thermo Fisher Scientific, Waltham, MA, USA) at λ = 570 nm. The CC50 values were obtained by linear regression analysis with concentration–response curves, which were performed with absorbance data using GraphPad Prism software (Prism 9.3.0, San Diego, CA, USA). The assays were conducted at two separate times in triplicate. The data were expressed as means.

[16] = system: C. krusei ATCC 6258; test: MIC, CLSI M27 broth microdilution; type: cell-based, Candida krusei; details: C. krusei ATCC 6258; EOs and terpenes; 24 h; top concentration 256 µg/mL
Description: as §1, §2

[17] = system: C. auris; test: MIC, CLSI M27 broth microdilution, several C. auris strains together; type: cell-based, Candida auris; details: over all C. auris strains of Table 4
Description: as §1
(§3) Antifungal susceptibility testing was performed according to Clinical and Laboratory Standards Institute M27, 4th Edition (CLSI standard M27, 4th Edition). […] MICs were visually determined at the lowest concentration that produced visual inhibition compared to the growth control. […] The results were expressed as geometric means (GM) and ranges. As an antifungal susceptibility testing control, the activity of ITC and AMB against the reference strains C. krusei ATCC 6258 and C. parapsilosis ATCC 22019 was evaluated in all experiments following the CLSI standard M27, 4th Edition. […]

[18] = system: Candida spp.; test: MIC, CLSI M27 broth microdilution, all Candida spp. of Tables 3 and 4 together; type: cell-based; details: over all strains of Table 3 and Table 4
Description: as §1, §3

[19] = system: Candida spp.; test: Screening of antifungal activity at 256 µg/mL against twenty strains; type: cell-based; details: screening at 256 µg/mL
Description: as §1
Antifungal susceptibility testing was performed according to Clinical and Laboratory Standards Institute M27, 4th Edition (CLSI standard M27, 4th Edition). Some modifications were applied for evaluation of the antifungal activity of EOs and terpenes. Initially, a screening was carried out to determine the antifungal activity of the EOs and of commercial terpenes. Stock concentrations of EOs and terpenes were prepared at 512 µg/mL and an inoculum of 2.5 × 10^3 CFU/mL of each yeast was prepared in RPMI 1640-MOPS (Sigma- Aldrich St. Louis, MO, USA). Thereafter, 100 µL of each stock solution of EOs or terpenes was dispensed in 96-well microdilution plates (Corning®, Costar®, NY, USA) and 100 µL of each yeast inoculum was added. […] MICs were visually determined at the lowest concentration that produced visual inhibition compared to the growth control. […] The results were expressed as geometric means (GM) and ranges. As an antifungal susceptibility testing control, the activity of ITC and AMB against the reference strains C. krusei ATCC 6258 and C. parapsilosis ATCC 22019 was evaluated in all experiments following the CLSI standard M27, 4th Edition. […]

[20] = system: HaCaT cell line; test: Cytotoxicity, MTT assay; details: MTT, 24 h treatment, HaCaT keratinocytes
Description: as §4

[21] = 24 h, top concentration 256 µg/mL

Range MIC [1]: 128 to 256 µg/mL
MIC ([1]; Candida tropicalis, ATCC200956, 24 h, top concentration 256 µg/mL, read-out: GM MIC): 181 µg/mL (≈ 1190 µM)
MIC ([2]; Lodderomyces metapsilosis, MUM15.12, read-out: GM MIC): 256 µg/mL (≈ 1680 µM)
MIC ([3]; Lodderomyces orthopsilosis, MUM17.13, read-out: GM MIC): 256 µg/mL (≈ 1680 µM)
Range MIC [4]: 128 to 256 µg/mL
MIC ([4]; Clavispora lusitaniae, MUM17.08, 24 h, top concentration 256 µg/mL, read-out: GM MIC): 181 µg/mL (≈ 1190 µM)
MIC ([5]; Candidozyma auris, CDCB11903, read-out: GM MIC): 256 µg/mL (≈ 1680 µM)
MIC ([6]; Candidozyma auris, CA13, 24 h, top concentration 256 µg/mL, read-out: GM MIC): 256 µg/mL (≈ 1680 µM)
MIC ([7]; Candidozyma auris, CA17, read-out: GM MIC): 256 µg/mL (≈ 1680 µM)
MIC ([8]; Candidozyma auris, CA1, read-out: GM MIC): 256 µg/mL (≈ 1680 µM)
MIC ([9]; Candidozyma auris, CA32, 24 h, top concentration 256 µg/mL, read-out: GM MIC): 128 µg/mL (≈ 841 µM)
MIC ([10]; Candidozyma auris, CA41, read-out: GM MIC): 128 µg/mL (≈ 841 µM)
MIC ([11]; Candidozyma auris, CA45, read-out: GM MIC): 256 µg/mL (≈ 1680 µM)
MIC ([12]; Candidozyma auris, CA46, read-out: GM MIC): 256 µg/mL (≈ 1680 µM)
MIC ([13]; Candidozyma auris, CA9, 24 h, top concentration 256 µg/mL, read-out: GM MIC): 128 µg/mL (≈ 841 µM)
Range MIC [14]: 64 to 128 µg/mL
MIC ([14]; Lodderomyces parapsilosis, SYNLAB406, 24 h, top concentration 256 µg/mL, read-out: GM MIC): 90.5 µg/mL (≈ 594 µM)
SMILES: C=C(C)[C@@H]1CC=C(CO)CC1 [Perillyl alcohol, perillyl alcohol]
CC50 at 24 h [15]: 401 µg/mL (≈ 2630 µM)

SMILES: C=C(C)[C@H]1CC=C(C)CC1 [Limonene, limonene]
GM MIC [16]: 32 µg/mL
GM MIC [1, 21]: 64 µg/mL
GM MIC [2]: 64 µg/mL
GM MIC [3]: 16 µg/mL
Range MIC [4]: 16 to 32 µg/mL
GM MIC [4, 21]: 22.6 µg/mL
GM MIC [5]: 64 µg/mL
Range MIC [6]: 16 to 32 µg/mL
GM MIC [6, 21]: 22.6 µg/mL
GM MIC [7]: 64 µg/mL
GM MIC [8]: 64 µg/mL
Range MIC [9]: 16 to 32 µg/mL
GM MIC [9, 21]: 22.6 µg/mL
GM MIC [10]: 16 µg/mL
GM MIC [11]: 16 µg/mL
GM MIC [12]: 16 µg/mL
Range MIC [13]: 16 to 32 µg/mL
GM MIC [13, 21]: 22.6 µg/mL
GM MIC [14, 21]: 64 µg/mL
MIC Range [17]: 16 to 64 µg/mL
MIC Range [18]: 16 to 64 µg/mL
antifungal activity in screening [19]: active against all tested Candida spp.
HaCaT Cells Mean CC50 [20]: 400.5 µg/mL
